# Patent publication US20230107642A1 (Erasca, Inc., priority 2020, published 2023)
# Molecular target: T1, Cys12 of the KRAS 4B G12C protein (Homo sapiens, UniProt P01116, G12C)
# T1 construct: This protein contained 188 amino acids in total, including an N-terminal 6-Histidine tag; made in house; host or cells: E. coli BL21
# Assay: In vitro covalent adduct formation (CAF) assay, LC-MS intact mass
# Type: binding
# Settings: 10 uM compound, 60 min
# Outline: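 GDP-loaded (>95%) His-TEV-tagged KRAS 4B G12C (residues 1–169), 5 μM in TBS pH 7.4, incubated with 10 μM compound (4% DMSO) at 22° C for one hour. Intact-protein LC-MS gave free:adduct ratios, reported as percent protein modified; duplicate runs.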
row,SMILES,% CAF 10 uM @ 60 min
1,"C=CC(=O)N1[C@H](C)CN(c2nc(=O)n3c4c(c(-c5ccc(F)cc5F)c(C(F)(F)F)cc24)SC[C@@H]3CN2CC[C@H](F)C2)C[C@@H]1C (atropisomer, axis not shown) [Example 1428, (3S,10S)-7-((3S,5R)-4-acryloyl-3,5-dimethylpiperazin-1-yl)-10-(2,4-difluorophenyl)-3-(((S)-3-fluoropyrrolidin-1-yl)methyl)-9-(trifluoromethyl)-2,3-dihydro-5H-[1,4]thiazino[2,3,4-ij]quinazolin-5-one]",72%
2,"C=CC(=O)N1[C@H](C)CN(c2nc(=O)n3c4c(c(-c5ccc(F)cc5F)c(C(F)(F)F)cc24)SC[C@@H]3CN2CC[C@H](F)C2)C[C@@H]1C (atropisomer, axis not shown) [Example 1429, (3S,10R)-7-((3S,5R)-4-acryloyl-3,5-dimethylpiperazin-1-yl)-10-(2,4-difluorophenyl)-3-(((S)-3-fluoropyrrolidin-1-yl)methyl)-9-(trifluoromethyl)-2,3-dihydro-5H-[1,4]thiazino[2,3,4-ij]quinazolin-5-one]",79%
3,"[2H]C([2H])=C([2H])C(=O)N1C[C@H](C)N(c2nc(=O)n3c4c(c(-c5cc(Cl)c(F)cc5F)c(C(F)(F)F)cc24)SCC2(COC2)C3)C[C@H]1C (atropisomer, axis not shown) [Example 1433, (S)-8′-((2S,5R)-4-(Acryloyl-d3)-2,5-dimethylpiperazin-1-yl)-11′-(5-chloro-2,4-difluorophenyl)-10′-(trifluoromethyl)-2′H,4′H,6′H-spiro[oxetane-3,3′-[1,4]thiazepino[2,3,4-ij]quinazolin]-6′-one]",70%
4,"[2H]C([2H])=C([2H])C(=O)N1C[C@H](C)N(c2nc(=O)n3c4c(c(-c5cc(Cl)c(F)cc5F)c(C(F)(F)F)cc24)SCC2(COC2)C3)C[C@H]1C (atropisomer, axis not shown) [Example 1434, (R)-8′-((2S,5R)-4-(Acryloyl-d3)-2,5-dimethylpiperazin-1-yl)-11′-(5-chloro-2,4-difluorophenyl)-10′-(trifluoromethyl)-2′H,4′H,6′H-spiro[oxetane-3,3′-[1,4]thiazepino[2,3,4-ij]quinazolin]-6′-one]",82%
5,"C=CC(=O)N1[C@H](C)CN(c2nc(=O)n3c4c(c(-c5cc(Cl)c(F)cc5F)c(C(F)(F)F)cc24)SC[C@@H]3CN2CC[C@H](F)C2)C[C@@H]1C (atropisomer, axis not shown) [Example 1438, (3S,10S)-7-((3S,5R)-4-acryloyl-3,5-dimethylpiperazin-1-yl)-10-(5-chloro-2,4-difluorophenyl)-3-(((S)-3-fluoropyrrolidin-1-yl)methyl)-9-(trifluoromethyl)-2,3-dihydro-5H-[1,4]thiazino[2,3,4-ij]quinazolin-5-one]",54%
6,"C=CC(=O)N1[C@H](C)CN(c2nc(=O)n3c4c(c(-c5cc(Cl)c(F)cc5F)c(C(F)(F)F)cc24)SC[C@@H]3CN2CC[C@H](F)C2)C[C@@H]1C (atropisomer, axis not shown) [Example 1439, (3S,10R)-7-((3S,5R)-4-acryloyl-3,5-dimethylpiperazin-1-yl)-10-(5-chloro-2,4-difluorophenyl)-3-(((S)-3-fluoropyrrolidin-1-yl)methyl)-9-(trifluoromethyl)-2,3-dihydro-5H-[1,4]thiazino[2,3,4-ij]quinazolin-5-one]",73%
7,"C=CC(=O)N1[C@H](C)CN(c2nc(=O)n3c4c(c(-c5cc(Cl)c(F)cc5F)c(C(F)(F)F)cc24)SC[C@@H](N2CCCC2)C3)C[C@@H]1C (atropisomer, axis not shown) [Example 1440, (3S,11S)-8-((3S,5R)-4-acryloyl-3,5-dimethylpiperazin-1-yl)-11-(5-chloro-2,4-difluorophenyl)-3-(pyrrolidin-1-yl) 10-(trifluoromethyl)-3,4-dihydro-[1,4]thiazepino[2,3,4-ij]quinazolin-6-one]",51%
8,"C=CC(=O)N1[C@H](C)CN(c2nc(=O)n3c4c(c(-c5cc(Cl)c(F)cc5F)c(C(F)(F)F)cc24)SC[C@@H](N2CCCC2)C3)C[C@@H]1C (atropisomer, axis not shown) [Example 1441, (3S,11R)-8-((3S,5R)-4-acryloyl-3,5-dimethylpiperazin-1-yl)-11-(5-chloro-2,4-difluorophenyl)-3-(pyrrolidin-1-yl) 10-(trifluoromethyl)-3,4-dihydro-2H,6H-[1,4]thiazepino[2,3,4-ij]quinazolin-6-one]",79%
9,"C=CC(=O)N1C[C@H](C)N(c2nc(=O)n3c4c(c(-c5cc(Br)c(F)cc5F)c(C(F)(F)F)cc24)SCC2(COC2)C3)C[C@H]1C (atropisomer, axis not shown) [Example 1445, (R)-8′-((2S,5R)-4-Acryloyl-2,5-dimethylpiperazin-1-yl)-11′-(5-bromo-2,4-difluorophenyl)-10′-(trifluoromethyl)-2′H,4′H,6′H-spiro[oxetane-3,3′-[1,4]thiazepino[2,3,4-ij]quinazolin]-6′-one]",95%
10,"C=CC(=O)N1C[C@H](C)N(c2nc(=O)n3c4c(c(-c5cc(Br)c(F)cc5F)c(C(F)(F)F)cc24)SCC2(COC2)C3)C[C@H]1C (atropisomer, axis not shown) [Example 1446, (S)-8′-((2S,5R)-4-Acryloyl-2,5-dimethylpiperazin-1-yl)-11′-(5-bromo-2,4-difluorophenyl)-10′-(trifluoromethyl)-2′H,4′H,6′H-spiro[oxetane-3,3′-[1,4]thiazepino[2,3,4-ij]quinazolin]-6′-one]",45%
11,"C=CC(=O)N1[C@H](C)CN(c2nc(=O)n3c4c(c(-c5cc(Br)c(F)cc5F)c(C(F)(F)F)cc24)SC[C@@H]3COC)C[C@@H]1C (atropisomer, axis not shown) [Example 1447, (3S,10R)-7-((3S,5R)-4-Acryloyl-3,5-dimethylpiperazin-1-yl)-10-(5-bromo-2,4-difluorophenyl)-3-(methoxymethyl)-9-(trifluoromethyl)-2,3-dihydro-5H-[1,4]thiazino[2,3,4-ij]quinazolin-5-one]",97%
12,"C=CC(=O)N1[C@H](C)CN(c2nc(=O)n3c4c(c(-c5cc(Br)c(F)cc5F)c(C(F)(F)F)cc24)SC[C@@H]3COC)C[C@@H]1C (atropisomer, axis not shown) [Example 1448, (3S,10S)-7-((3S,5R)-4-Acryloyl-3,5-dimethylpiperazin-1-yl)-10-(5-bromo-2,4-difluorophenyl)-3-(methoxymethyl)-9-(trifluoromethyl)-2,3-dihydro-5H-[1,4]thiazino[2,3,4-ij]quinazolin-5-one]",95%

# Same assay, conditions: 10 uM compound, 60 min incubation
row,SMILES,% CAF 10 uM @ 60 min
1,"C=CC(=O)N1C[C@H](C)N(c2nc(=O)n3c4c(c(-c5cc(Cl)c(F)cc5F)c(C(F)(F)F)cc24)SCC2(COC2)C3)C[C@H]1C (single isomer, unassigned) [Example 1120]",64.9%
2,"C=CC(=O)N1C[C@H](C)N(c2nc(=O)n3c4c(c(-c5cc(Cl)c(F)cc5F)c(C(F)(F)F)cc24)SCC2(COC2)C3)C[C@H]1C (single isomer, unassigned) [Example 1121]",95.5%
3,"C=CC(=O)N1[C@H](C)CN(c2nc(=O)n3c4c(c(-c5cc(Cl)c(F)cc5F)c(C(F)(F)F)cc24)SC[C@@H]3COC)C[C@@H]1C (single isomer, unassigned) [Example 1139]",95.9%
4,"C=CC(=O)N1[C@H](C)CN(c2nc(=O)n3c4c(c(-c5cc(Cl)c(F)cc5F)c(C(F)(F)F)cc24)SC[C@@H]3COC)C[C@@H]1C (single isomer, unassigned) [Example 1140]",93.9%

# Same assay, conditions: after 60 min
row,SMILES,CAF (% binding after 60 min)
1,"C=CC(=O)N1[C@H](C)CN(c2nc(=O)n3c4c(c(-c5ccc(F)cc5F)c(C(F)(F)F)cc24)SC[C@H](N(C)C)C3)C[C@@H]1C [Example 1001, (3R)-8-((3S,5R)-4-acryloyl-3,5-dimethylpiperazin-1-yl)-11-(2,4-difluorophenyl)-3-(dimethylamino)-10-(trifluoromethyl)-3,4-dihydro-2H,6H-[1,4]thiazepino[2,3,4-ij]quinazolin-6-one]",84%
2,"C=CC(=O)N1CCN(c2nc(=O)n3c4c(c(-c5ccc(F)cc5)c(C(F)(F)F)cc24)SC[C@H](O)C3)CC1 [Example 1002, (R)-8-(4-acryloylpiperazin-1-yl)-11-(4-fluorophenyl)-3-hydroxy-10-(trifluoromethyl)-3,4-dihydro-2H,6H-[1,4]thiazepino[2,3,4-ij]quinazolin-6-one]",97%
3,"C=CC(=O)N1[C@H](C)CN(c2nc(=O)n3c4c(c(-c5ccc(F)cc5)c(C(F)(F)F)cc24)SC[C@@H](O)C3)C[C@@H]1C [Example 1003, (S)-8-((3S,5R)-4-acryloyl-3,5-dimethylpiperazin-1-yl)-11-(4-fluorophenyl)-3-hydroxy-10-(trifluoromethyl)-3,4-dihydro-2H,6H-[1,4]thiazepino[2,3,4-ij]quinazolin-6-one]",95%
4,"C=CC(=O)N1CCN(c2nc(=O)n3c4c(c(-c5ccc(F)cc5)c(C(F)(F)F)cc24)SC[C@@H](OCOC)C3)CC1 [Example 1004, (S)-8-(4-acryloylpiperazin-1-yl)-11-(4-fluorophenyl)-3-(methoxymethoxy)-10-(trifluoromethyl)-3,4-dihydro-2H,6H-[1,4]thiazepino[2,3,4-ij]quinazolin-6-one]",97%
5,"C=CC(=O)N1CCN(c2nc(=O)n3c4c(c(-c5ccc(F)cc5)c(C(F)(F)F)cc24)SC[C@H](OCOC)C3)CC1 [Example 1005, (R)-8-(4-acryloylpiperazin-1-yl)-11-(4-fluorophenyl)-3-(methoxymethoxy)-10-(trifluoromethyl)-3,4-dihydro-2H,6H-[1,4]thiazepino[2,3,4-ij]quinazolin-6-one]",97%
